What was measured:
[1] = test system: 4PD1^hi; assay: FACS monitoring of circulating 4PD1hi / CD4+ T-cell subsets in advanced melanoma patients during immune checkpoint blockade; assay type: in vivo, human; settings: for circulating 4PD1hi frequency: metastatic melanoma patients, ipilimumab n=47, pembrolizumab n=52, relative to baseline
Description: We further confirmed the results achieved in NSCLC patients in larger cohorts of metastatic melanoma patients treated with ipilimumab (FIG. 8C, αCTLA-4, n=47) or the αPD-1 pembrolizumab (FIG. 8C, n=52, 50/52 upon relapse on ipilimumab). αCTLA-4 increased circulating 4PD1^hi, while administration of αPD-1 reduced their frequency (FIG. 8C). We further substantiated the capability of αPD-1 (pembrolizumab) to down-regulate 4PD1hi in an independent cohort of melanoma patients (Huang et al., 2017) (FIG. 8F).
(§1) All patients and healthy donors signed an approved informed consent before providing tissue samples. Patient samples were collected on a tissue-collection protocol approved by the MSKCC Institutional Review Board and processed as described (Holmgaard et al., 2015).
Tumors were dissociated after 30 min incubation with Liberase TL and DNAse I (Roche) to obtain single-cell suspensions. When tumor mass exceeded 0.1 gr, immune-cell infiltrates were enriched by Percoll (GE Healthcare) gradient centrifugation. Cells from tumor-draining lymph nodes and spleens were prepared by mechanical dissociation on 40 μM filters and RBC lysis (ACK buffer, Lonza). Mouse PB was collected by retro-orbital puncture and RBC were lysed with Pharm Lyse Buffer (BD Bioscences). Surface staining of mouse cells was performed after 15 min pre-incubation with anti-mouse CD16/CD32 Ab (clone 2.4G2; BD Biosciences) to block FcγR binding, with panels of appropriately diluted fluorochrome-conjugated Abs (from BD Biosciences, eBioscience or Invitrogen) against the following mouse proteins in different combinations: CD45 (clone 30-F11), CD45.1 (clone A20), CD4 (clone RM4-5), CD8a (clone 5H10), Thy1.1 (clone OX-7), B220 (RA3-6B2), CD19 (clone 1D3), PD-1 (RMP1-30), CD44 (clone IM7), CD62L (clone MEL-14), CD25 (clone PC61.5), CD86 (clone GL-1), I-A/I-E (clone M5/114.15.2), PD-L1 (clone MIH5), ICOS (clone C398.4A), CXCR5 (biotin-conjugated clone 2G8, followed by PE-/APC-labeled streptavidin staining), and a eFluor506 fixable viability dye. For intracellular staining, mouse cells were fixed and permeabilized (Foxp3 fixation/permeabilization buffer, eBioscience) and incubated with appropriately diluted PECF594-labeled anti-Bcl6 (clone K112-91, BD Biosciences), PECy7-labeled anti-Ki67 (clone B56, BD Biosciences), and FITC-labeled anti-Foxp3 (clone FJK-16s, eBioscience) Abs. Surface staining of human cells was performed in the presence of FcγR Blocking reagent (Miltenyi Biotec) with proper dilutions of fluorochrome-conjugated Abs (from BD Biosciences, eBioscience or Tonbo) against the following human proteins in different combinations: CD45 (clone HI30), CD45RA (clone HI100), CD4 (clone RPA-T4), PD-1 (clone MIH4 or J105 in anti-PD-1-treatment naïve samples), CD25 (clone MA251), ICOS (clone ISA-3), CXCR5 (clone RF8B2), CD19 (clone HIB19), and CD86 (clone FUN-1), and a eFluor506 fixable viability dye. For intracellular staining, human cells were fixed and permeabilized (Foxp3 fixation/permeabilization buffer, eBioscience) and then incubated with appropriately diluted eFuor450-labeled anti-Foxp3 (clone PCH101, eBiosciences), PECF594-labeled anti-Bcl6 (clone K112-91), and APC-labeled anti-CTLA-4 (clone BNI3, BD Biosciences) Abs.

[2] = test system: circulating B cells; assay: CD86 expression on circulating B cells of metastatic melanoma patients; assay type: in vivo, human; settings: ipilimumab 3 mg/kg q3 wks, n=16
Description: as §1
(§2) Tumors were dissociated after 30 min incubation with Liberase TL and DNAse I (Roche) to obtain single-cell suspensions. When tumor mass exceeded 0.1 gr, immune-cell infiltrates were enriched by Percoll (GE Healthcare) gradient centrifugation. Cells from tumor-draining lymph nodes and spleens were prepared by mechanical dissociation on 40 μM filters and RBC lysis (ACK buffer, Lonza). Mouse PB was collected by retro-orbital puncture and RBC were lysed with Pharm Lyse Buffer (BD Bioscences). […]

[3] = test system: 4PD1^hi; assay: FACS monitoring of circulating 4PD1hi in advanced NSCLC patients during immune checkpoint blockade; assay type: in vivo, human
Description: To evaluate the role of 4PD1^hi in the development of anti-tumor immune responses in vivo, we monitored this cell population in cancer patients treated with immune checkpoint blockade. To detect human PD-1, we employed a mAb whose binding is not cross-blocked by the therapeutic αPD-1 Abs nivolumab or pembrolizumab (FIG. 7A). […] We thus explored in mice the capability of αCTLA-4 monotherapy to increase 4PD1^hi in a dose-dependent manner, by treating with 100 μg (standard dose in mice) or a higher amount (300 μg) of αCTLA-4 (FIG. 8B). […] Furthermore, in different mouse strains (C57BL/6J and Balb/c) we observed that the presence of tumor contributes to anti-CTLA-4-mediated induction of 4PD1^hi.
as §1
as §2, with “Lonza).” for “Lonza). Mouse PB was collected by retro-orbital puncture and RBC were lysed with Pharm Lyse Buffer (BD Bioscences).”

[4] = test system: B16 melanoma; assay: Tumor growth and tumor-free survival in tumor-bearing mice; assay type: in vivo, mouse
Description: (§3) B16 melanoma cells were implanted intradermally (10^5 cells, for tumor-growth and survival analyses) or subcutaneously in matrigel (Matrigel Matrix Growth Factor Reduced, Becton Dickinson) (2×10^5 cells, for immune-cell infiltrate analyses) in C57BL/6J mice. Vaccination with VRP-TRP2 (AlphaVax Inc.) was performed by injection of 1×10^6 virus-like replicon particles (VRPs) (Zappasodi and Merghoub, 2015) expressing mouse TRP2 into the plantar surface of each footpad for 3 times 1 week apart, starting 3 days after tumor implantation (Avogadri et al., 2014). Treatment with anti-CTLA-4 (clone 9D9, 100 μg or 300 μg/injection), anti-PD-1 (clone RMP1-14, 250 μg/injection), or the matched isotype IgGs (BioXcell) was started 3-4 (optimal treatment) or 6-7 days (suboptimal treatment) after tumor implantation for respectively 5 or 4 intraperitoneal (i.p.) administrations 3 days apart. Immunization with sRBC was performed i.p. with 200 μl 10% volume/volume sRBC solution (Innovative Research). The Bcl6 inhibitor 79.6 (Calbiochem) was administered daily i.p. in 10% DMSO at 50 mg/kg (Cerchietti et al., 2010). TUBO breast carcinoma cells were implanted subcutaneously in Balb/c mice (10^6 cells/mouse) and anti-CTLA-4 treatment was started 10 days after. Animals were monitored at least twice a week and were considered tumor-free until intradermal lesions were palpable.

[5] = test system: 4PD1^hi; assay: 4PD1hi and Treg frequency/phenotype in tumor-bearing mice under treatment (FACS, immunofluorescence); assay type: in vivo, mouse
Description: as §3, §2

ipilimumab
ICOS expression in CD4+ T cell subsets ([1]; melanoma cohort, 4PD1neg, Tregs and 4PD1hi): induced ICOS expression
circulating 4PD1hi frequency [1]: increased
CD86 on circulating B cells [2]: up-regulation
circulating 4PD1hi ([3]; NSCLC patients, ipilimumab 1 or 3 mg/kg added to nivolumab 1 mg/kg, compared with nivolumab monotherapy): proportional increases

pembrolizumab
4PD1hi frequency, independent cohort ([1]; independent cohort of melanoma patients, pembrolizumab 2 mg/kg q3 wks, n=18): down-regulate
dose dependence of 4PD1hi down-regulation ([1]; melanoma patients, higher dose of pembrolizumab (2 mg/kg or 10 mg/kg)): more efficient at down-regulating
circulating 4PD1hi frequency [1]: reduced

O=C(O)CC(C(=O)O)n1c(O)c(C2=c3cc(Br)ccc3=NC2=O)sc1=S (stereo not shown) [Bcl6 inhibitor]
anti-tumor activity in RAG KO mice ([4]; RAG KO mice lacking mature T and B cells, Bcl6 inhibition): completely lost
tumor growth ([4]; WT mice, Bcl6 inhibitor, also in the context of CTLA-4 blockade and high baseline 4PD1hi): modestly (but significantly) delayed tumor growth
intra-tumor Tregs ([5]; Bcl6 inhibition): favored intra-tumor Treg expansion
total CD4+ or CD8+ T-cell intra-tumor infiltration ([5]; Bcl6 inhibition): did not find significant increases
4PD1hi in the periphery and at the tumor site ([5]; Bcl6 inhibitor 50 mg/kg daily i.p.): effective in controlling

nivolumab
peripheral 4PD1hi frequency ([3]; metastatic NSCLC patients, nivolumab monotherapy (nivo3, 3 mg/kg q2 wks, n=10), relative to baseline): reduced
